We go through 43 molecules from patent publication US20240174680A1, “CDK2 INHIBITORS AND METHODS OF USING THE SAME” (Cedilla Therapeutics, Inc., priority 2021, published 2024).

The target of the test is CDK2/Cyclin E1 (Homo sapiens, UniProt P24941). As to the kind of experiment: CDK2/Cyclin E1 Caliper LabChip EZ Reader mobility shift assay. The test is classed as biochemical. On the set-up: purchased Eurofins 14-475. The note with it: read-out: Caliper Assay (CDK2/CCNE1): IC50. The essentials: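 Substrate-to-product conversion of fluorescent peptide (1.5 μM final) read by capillary electrophoresis after 100 min reaction, EDTA-quenched. Enzyme (2.5 nM final) and ATP (100 μM final) were preincubated 30 min with inhibitor dilutions first. % activity vs concentration fitted four-parameter for IC50.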

For `CNC(=O)[C@@H](NC(=O)[C@@H]1CN(C(=O)c2cnn(Cc3ccccc3)c2)CC12CN(C(=O)[C@H]1CC1(C)C)C2)C(C)(C)SCc1ccccc1` [I-171A, (S)-6-(1-benzyl-1H-pyrazole-4-carbonyl)-N—((R)-3-(benzylthio)-3-methyl-1-(methylamino)-1-oxobutan-2-yl)-2-((S)-2,2-dimethylcyclopropane-1-carbonyl)-2,6-diazaspiro[3.4]octane-8-carboxamide], the IC50 is 100 to 1000 nM.

For `C[C@@H]1C[C@H](C)CN(C(=O)[C@@H](NC(=O)C2CN(C(=O)c3cnn(Cc4ccccc4)c3)CC23CN(C(=O)[C@H]2CC2(C)C)C3)[C@@H](C)OCC2CCCCC2)C1` (stereo partly shown) [I-104], the IC50 fell in the range of 10 to 100 nM.

Consider `CNC(=O)[C@@H](NC(=O)[C@@H]1CN(C(=O)c2cnn(Cc3ccccc3)c2)CC12CN(C(=O)C1(C)CC1)C2)[C@@H](C)OCc1ccccc1` [I-67A, (S)-6-(1-benzyl-1H-pyrazole-4-carbonyl)-N-((2S,3R)-3-(benzyloxy)-1-(methylamino)-1-oxobutan-2-yl)-2-(1-methylcyclopropane-1-carbonyl)-2,6-diazaspiro[3.4]octane-8-carboxamide], for which the IC50 lay in the range of 100 to 1000 nM.

On to `CNC(=O)[C@@H](NC(=O)[C@@H]1CN(Cc2cnc[nH]2)CC12CN(C(=O)[C@H]1CC1(C)C)C2)[C@@H](C)OCc1ccccc1` [I-77A, (S)-6-((1H-imidazol-5-yl)methyl)-N-((2S,3R)-3-(benzyloxy)-1-(methylamino)-1-oxobutan-2-yl)-2-((S)-2,2-dimethylcyclopropane-1-carbonyl)-2,6-diazaspiro[3.4]octane-8-carboxamide], for which the IC50 is above 10000 nM.

For `C[C@@H](OCC1CCC(F)(F)CC1)[C@H](NC(=O)[C@H]1CN(C(=O)c2cn[nH]c2)CC12CN(C(=O)[C@H]1CC1(C)C)C2)C(=O)N1CCC(F)(F)CC1` [I-228B], the IC50 is 100 to 1000 nM.

Consider `C[C@@H](OCC1CCC(F)(F)CC1)[C@H](NC(=O)[C@@H]1CN(C(=O)c2cncs2)CC12CN(C(=O)[C@H]1CC1(C)C)C2)C(=O)N1CCC2(CC1)COC2` [I-335], for which the IC50 is at most 10 nM.

With `COC[C@H]1CCCN(C(=O)[C@@H](NC(=O)[C@@H]2CN(C(=O)c3cncs3)CC23CN(C(=O)[C@H]2CC2(C)C)C3)[C@@H](C)O[C@@H](C)C2CCCCC2)C1` [I-369], the IC50 was at most 10 nM.

Take `Cc1ccc(CNC(=O)[C@@H]2CN(C(=O)c3cnn(Cc4ccccc4)c3)CC23CN(C(=O)C(C)(C)C2CC2)C3)nn1` [I-387, (S)-6-(1-benzyl-1H-pyrazole-4-carbonyl)-2-(2-cyclopropyl-2-methylpropanoyl)-N-((6-methylpyridazin-3-yl)methyl)-2,6-diazaspiro[3.4]octane-8-carboxamide]: the IC50 is above 10000 nM.

As for `CNC(=O)[C@H](COCc1ccccc1)NC(=O)[C@H]1CN(C(=O)c2cnn(Cc3ccccc3)c2)CC12CN(C(=O)C(C)(C)C)C2` [I-100B], the IC50 is above 10000 nM.

As for `CNC(=O)C(NC(=O)[C@@H]1CN(C(=O)c2cncs2)CC12CN(C(=O)[C@H]1CC1(C)C)C2)c1ncc(C2CCCCC2)o1` (stereo partly shown) [I-426], the IC50 lay within 100 to 1000 nM.

As to `CNC(=O)[C@@H](NC(=O)[C@H]1CN(C(=O)c2cn[nH]c2)CC12CN(C(=O)CC1CC1)C2)[C@@H](C)OCc1ccccc1` [I-41B], the IC50 is above 10000 nM.

Regarding `CC1(C)C[C@@H]1C(=O)N1CC2(CN(C(=O)c3cnn(Cc4ccccc4)c3)C[C@H]2C(=O)N[C@H]2CCc3cc(Cl)ccc32)C1` [I-133A], the IC50 was in the range of 1000 to 10000 nM.

Take `CC1(C)C[C@@H]1C(=O)N1CC2(CN(C(=O)c3cnn(Cc4ccccc4)c3)C[C@H]2C(=O)NC[C@H]2CC[C@H](C)CC2)C1` [I-382]: the IC50 lay within 1000 to 10000 nM.

With `CNC(=O)[C@@H](NC(=O)[C@H]1CN(C(=O)c2cnc(COC)s2)CC12CN(C(=O)[C@H]1CC1(C)C)C2)[C@@H](C)OCC1CCCCC1` [I-145B], the IC50 is 1000 to 10000 nM.

`CNC(=O)[C@@H](NC(=O)[C@H]1CN(C(=O)c2cnc(C)s2)CC12CN(C(=O)[C@H]1CC1(C)C)C2)[C@@H](C)OCC1CCCCC1` [I-156B]: the IC50 was above 10000 nM.

For `CO[C@H](C)[C@H](NC(=O)[C@@H]1CN(C(=O)c2cnn(C)c2)CC12CN(C(=O)[C@H]1CC1(C)C)C2)C(=O)N1CCCCC1` [I-303], the IC50 is above 10000 nM.

Regarding `CNC(=O)[C@@H](NC(=O)[C@H]1CN(C(=O)c2cnn(CC(F)(F)F)c2)CC12CN(C(=O)CC1CC1)C2)[C@@H](C)OCc1ccccc1` [I-43B], the IC50 is above 10000 nM.

As to `CNC(=O)[C@@H](NC(=O)[C@@H]1CN(C(=O)Cc2cnn(Cc3ccccc3)c2)CC12CN(C(=O)[C@H]1CC1(C)C)C2)[C@@H](C)OCc1ccccc1` [I-373], the IC50 is above 10000 nM.

As to `CNC(=O)[C@@H](NC(=O)[C@@H]1CN(C(=O)c2cnn(Cc3ccccc3)c2)CC12CN(C(=O)C1(F)CC1)C2)[C@@H](C)OCc1ccccc1` [I-71A], the IC50 was 100 to 1000 nM.

In the case of `CC1(C)C[C@@H]1C(=O)N1CC2(CN(C(=O)c3cnn(Cc4ccccc4)c3)C[C@@H]2C(=O)NCc2nnc[nH]2)C1` [I-191B], the IC50 was above 10000 nM.

In the case of `C[C@@H](OCC1CCC(F)(F)CC1)[C@H](NC(=O)[C@@H]1CN(C(=O)c2cncs2)CC12CN(C(=O)[C@H]1CC1(C)C)C2)C(=O)N1CCC(CO)CC1` [I-397], the IC50 is at most 10 nM.

As to `COC[C@H]1CCCN(C(=O)[C@@H](NC(=O)[C@@H]2CN(C(=O)c3cncs3)CC23CN(C(=O)[C@H]2CC2(C)C)C3)[C@@H](C)OCc2cccc(F)c2)C1` [I-322], the IC50 was at most 10 nM.

For the molecule `Cc1ccc(CNC(=O)[C@@H]2CN(C(=O)c3cnn(Cc4ccncc4)c3)CC23CN(C(=O)[C@H]2CC2(C)C)C3)nn1` [I-418], the IC50 is above 10000 nM.

With `CNC(=O)[C@@H](NC(=O)[C@@H]1CN(C(=O)c2cnn(Cc3ccccc3)c2)CC12CN(C(=O)[C@H]1CC1(C)C)C2)[C@@H](C)OCC1C[C@@H](C)C[C@@H](C)C1` (stereo partly shown) [I-249], the IC50 is 10 to 100 nM.

For `C[C@@H](OCC1(C(F)(F)F)CC1)[C@H](NC(=O)[C@@H]1CN(C(=O)c2cncs2)CC12CN(C(=O)[C@H]1CC1(C)C)C2)C(=O)N1CCCCC1` [I-285], the IC50 lay in the range of 100 to 1000 nM.

As to `CNC(=O)[C@H](CSCc1ccccc1)NC(=O)[C@@H]1CN(C(=O)c2cnn(Cc3ccccc3)c2)CC12CN(C(=O)[C@H]1CC1(C)C)C2` [I-225], the IC50 lay in the range of 100 to 1000 nM.

As for `CO[C@@H]1CC[C@H](NC(=O)[C@@H]2CN(C(=O)c3cnn(Cc4ccccc4)c3)CC23CN(C(=O)[C@H]2CC2(C)C)C3)C1` [I-248], the IC50 is above 10000 nM.

On to `C[C@@H](OCc1ccccc1)[C@H](NC(=O)C1CN(C(=O)c2cnn(Cc3ccccc3)c2)CC12CN(C(=O)[C@H]1CC1(C)C)C2)C(=O)N1CCCC(CO)C1` (stereo partly shown) [I-98], for which the IC50 is 10 to 100 nM.

As for `CNC(=O)[C@@H](NC(=O)[C@@H]1CN(C(=O)c2cnn(Cc3ccccc3)c2)CC12CN(C(=O)CC(C)C)C2)[C@@H](C)OCc1ccccc1` [I-69A], the IC50 lay in the range of 100 to 1000 nM.

Regarding `CNC(=O)[C@@H](NC(=O)[C@H]1CN(Cc2cn[nH]c2)CC12CN(C(=O)[C@H]1CC1(C)C)C2)[C@@H](C)OCc1ccccc1` [I-50B], the IC50 was above 10000 nM.

In the case of `CNC(=O)[C@@H](NC(=O)[C@H]1CN(C(=O)c2cncs2)CC12CN(C(=O)[C@H]1CC1(C)C)C2)[C@@H](C)OCC1CCCCC1` [I-129B], the IC50 is 1000 to 10000 nM.

For `C[C@@H](OCC1CCCCC1)[C@H](NC(=O)[C@@H]1CN(C(=O)c2cncs2)CC12CN(C(=O)[C@H]1CC1(C)C)C2)C(=O)N1CCOCC1` [I-198], the IC50 is at most 10 nM.

As for `CNC(=O)[C@@H](NC(=O)C1CN(C(=O)c2cnn(Cc3ccccc3)c2)CC12CN(C(=O)[C@H]1CC1(C)C)C2)[C@@H](C)OCc1ccccn1` (stereo partly shown) [I-257], the IC50 is 1000 to 10000 nM.

Consider `CNC(=O)C(NC(=O)[C@@H]1CN(C(=O)c2cncs2)CC12CN(C(=O)[C@H]1CC1(C)C)C2)c1cccc(N2CCOCC2)n1` (stereo partly shown) [I-422], for which the IC50 is 1000 to 10000 nM.

Take `CC1(C)C[C@@H]1C(=O)N1CC2(CN(C(=O)c3cncs3)C[C@H]2C(=O)NC(CO)c2cccc(C3CCC(F)(F)CC3)n2)C1` (stereo partly shown) [I-419]: the IC50 fell in the range of 100 to 1000 nM.

Turning to `CNC(=O)[C@@H](NC(=O)[C@@H]1CN(C(=O)c2cnn(Cc3ccccc3)c2)CC12CN(C(=O)[C@H]1CC1(C)C)C2)[C@@H](C)OCC1CCC(C(F)(F)F)CC1` (stereo partly shown) [I-141A], the IC50 lay within 10 to 100 nM.

With `CCCC(=O)N1CC2(C1)CN(C(=O)c1cnn(Cc3ccccc3)c1)C[C@H]2C(=O)N[C@H](C(=O)NC)[C@@H](C)OCc1ccccc1` [I-60A], the IC50 was in the range of 1000 to 10000 nM.

Turning to `CC1(C)C[C@@H]1C(=O)N1CC2(CN(C(=O)c3cnn(Cc4ccccc4)c3)C[C@@H]2C(=O)Nc2cccc(Cc3ccccc3)c2)C1` [I-75B], the IC50 fell in the range of 1000 to 10000 nM.

In the case of `CNC(=O)[C@@H](NC(=O)[C@@H]1CN(Cc2cnco2)CC12CN(C(=O)[C@H]1CC1(C)C)C2)[C@@H](C)OCc1ccccc1` [I-78A, (S)—N-((2S,3R)-3-(benzyloxy)-1-(methylamino)-1-oxobutan-2-yl)-2-((S)-2,2-dimethylcyclopropane-1-carbonyl)-6-(oxazol-5-ylmethyl)-2,6-diazaspiro[3.4]octane-8-carboxamide], the IC50 is above 10000 nM.

With `CNC(=O)C(NC(=O)[C@@H]1CN(C(=O)c2cncs2)CC12CN(C(=O)[C@H]1CC1(C)C)C2)C(O)Cc1ccccc1` (stereo partly shown) [I-356], the IC50 is above 10000 nM.

For the molecule `CNC(=O)[C@@H](NC(=O)[C@H]1CN(C(=O)c2cnn(Cc3ccccc3)c2)CC12CN(C(=O)[C@H]1CC1(C)C)C2)[C@@H](C)OCC(C)(C)C` [I-130B], the IC50 was in the range of 100 to 1000 nM.

For `CNC(=O)[C@@H](NC(=O)[C@@H]1CN(C(=O)c2cnn(Cc3ccccc3)c2)CC12CN(C(=O)[C@H]1CC1(C)C)C2)[C@@H](C)O` [I-88A, (S)-6-(1-benzyl-1H-pyrazole-4-carbonyl)-2-((S)-2,2-dimethylcyclopropane-1-carbonyl)-N-((2S,3R)-3-hydroxy-1-(methylamino)-1-oxobutan-2-yl)-2,6-diazaspiro[3.4]octane-8-carboxamide], the IC50 is above 10000 nM.

Turning to `CC1(C)C[C@@H]1C(=O)N1CC2(CN(C(=O)c3cnn(Cc4ccccc4)c3)C[C@H]2C(=O)NCc2ccc(C(F)(F)F)nn2)C1` [I-392], the IC50 lay in the range of 1000 to 10000 nM.
